# Experimental data reported in patent publication US12116344B2, “Crystalline forms of a pharmaceutical compound” (Azafaros B.V., priority 2020, dated 2024).
# Where two headings read alike, the source gives them in different places.
# Assay: Brain:plasma exposure after repeat oral administration PND 11-70
# Assay type: in vivo, mice
# Details: NPC1 (−/−) (Balb/c background), mouse, brain and plasma
# Description: 24 NPC1 (−/−) mice were treated per oral gavage with AZ-3102-00 from post-natal day 11 (P11) to post-natal-day 70 (P70). Age-matched control mice included 6 NPC (−/−) and 4 NPC (+/−) mice treated with vehicle, and 4 NPC (+/+) mice received AZ-3102-00. After the last treatment on P70, NPC (−/−) mice (n=4 per timepoint) were euthanized by IP injection of 600 mg/kg pentobarbital at the following timepoints: 30 min, 1 h, 2 h, 4 h, 8 h, and 24 h. Control mice were also sacrificed after the last treatment (not time critical). Terminal blood was collected by heart puncture in EDTA coated tubes. Blood plasma was collected by centrifugation (3000×g for 10 minutes at room temperature) and 50 μL plasma aliquots were transferred to 1.5 mL tubes, frozen on dry ice and stored at −80° C.
# 24 NPC1 (−/−) mice (groups D to I) were treated per oral gavage (10 mL/kg) with AZ-3102-00 from post-natal day 11 (P11) to post-natal-day 70 (P70). Dosing will start at 1.5 mg/kg from P11 to P25, followed by 3 mg/kg from P26 to P70. Control mice included 6 NPC1 (−/−) and 4 NPC (+/−) mice treated with vehicle and 4 NPC (+/+) mice received AZ-3102-00 (groups A to C).
# After the last treatment on P70, NPC (−/−) mice (n=4 per timepoint; groups D to I) were euthanized by IP injection of 600 mg/kg pentobarbital a the following timepoints: 30 min, 1 h, 2 h, 4 h, 8 h, and 24 h. Control mice (groups A, B and C) were also sacrificed after the last treatment (not time critical).
# At 30 min (Group D), 1 h (+/−5 min. Group E), 2 h (+/−5 min. Group F), 4 h (+/−5 min. Group G), 8 h (+/−5 min. Group H), and 24 h (+/−5 min. Group 1) (all time critical) after the last treatment on P70, mice were euthanized by i.p. injection.
# (§1) Plasma samples were first mixed for protein precipitation with a solution of acetonitrile containing 50 ng/mL of AZ-3101 (internal standard). After 5 minutes incubation at room temperature, the samples were centrifuged for 5 minutes (13000 rpm, 4° C.) and the supernatant was diluted 10-fold in ultrapure water with 0.1% formic acid.
# as §1, with “Brain tissues” for “Plasma samples”, “homogenized in a solution of ultrapure water:methanol (1:1) with 0.1% formic acid (4 mL for each gram of tissue) using a FastPrep 24™ Microtube homogenizer (MP Biomedicals, USA). Brain homogenates were” for “first”, “10” for “50”
# Diluted plasma and brain tissue supernatants were injected into an Agilent LC system (Agilent, USA) by an automated sample injector (SIL-30, Shimadzu, USA). […] Data were calibrated and quantified using the Analyst™ data system (AB Sciex, version 1.6.3). […]
smiles,measurement,setting,value
OC[C@H]1[C@@H](O)[C@H](O)[C@@H](O)CN1CCCCCOCc1ccc(-c2ccccc2)c(F)c1 [AZ-3102],Kp,"female, Female mice, read-out: Brain:Plasma Ratio AUC0-24",1.37
same,Kp,"female, Female mice, read-out: Brain:Plasma Ratio Cmax",0.41
same,Kp,"male, Male mice, read-out: Brain:Plasma Ratio AUC0-24",0.95
same,Kp,"male, Male mice, read-out: Brain:Plasma Ratio Cmax",0.26
